Converted amounts (≈) assume the structure as drawn.
Key:
[1] = test system: yeast α-glucosidase from Saccharomyces cerevisiae; assay: α-glucosidase inhibitory effect (pNPG, AUC of absorbance at 405 nm); assay type: biochemical; settings: for Inhibitory effects α-glucosidase (acarbose equivalents): converted into acarbose equivalents; for IC50 α-Glucosidase: mean ± SD of three repeated tests, logarithmic regression
Method: (§1) All solvents (analytical grade) were bought from Beijing Chemical Factory, and purified water was from a mili-Q system (Millipore, Billerica, MA).
α-Glucosidase inhibitory effect was assayed as reported by Zhang et al.. […] Then, 30 μL pNPG solution (2 mM pNPG in 0.1 mM phosphate buffer) was added quickly to initiate the enzyme reaction. Absorbance was monitored at 405 nm every 15 min for 2 h using a microplate reader (Tecan infinite 200, Swiss).

[2] = target: T1, porcine pancreatic α-amylase (Sus scrofa, UniProt P00690); assay: α-amylase inhibitory effect (starch, dinitrosalicylic acid, 540 nm); assay type: biochemical; settings: for Contribution to the overall enzyme inhibitory effect of the extract, α-amylase: Contribution = [Ei/E0] × C × 100; for Inhibitory effects α-amylase (acarbose equivalents): converted into acarbose equivalents; for IC50: mean ± SD of three repeated tests, logarithmic regression
T1 construct: purchased Sigma-Aldrich Co. (St. Louis, MO, USA)
T1 sequence (P00690 16-511): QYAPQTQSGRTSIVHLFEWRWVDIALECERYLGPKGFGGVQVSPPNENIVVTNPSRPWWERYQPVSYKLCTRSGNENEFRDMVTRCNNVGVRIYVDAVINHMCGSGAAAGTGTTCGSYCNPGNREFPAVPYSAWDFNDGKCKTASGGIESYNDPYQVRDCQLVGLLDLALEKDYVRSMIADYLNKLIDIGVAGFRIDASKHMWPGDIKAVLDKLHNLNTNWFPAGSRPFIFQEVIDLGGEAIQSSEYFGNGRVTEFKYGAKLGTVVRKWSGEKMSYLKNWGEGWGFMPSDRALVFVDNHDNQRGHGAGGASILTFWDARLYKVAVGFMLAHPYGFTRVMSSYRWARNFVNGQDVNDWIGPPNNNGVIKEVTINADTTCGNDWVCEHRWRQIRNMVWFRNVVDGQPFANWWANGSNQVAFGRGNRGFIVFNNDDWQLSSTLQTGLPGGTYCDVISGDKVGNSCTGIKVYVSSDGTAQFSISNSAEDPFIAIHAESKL
Method: as §1
After incubation for 20 min at 37 °C, 300 μL starch solution (1%) in sodium phosphate buffer (0.02 M, pH 6.9 with 6 mM NaCl) was added, and the mixture was re-incubated for 20 min, followed by addition of 0.2 mL dinitrosalicylic acid. The new mixture was then boiled for 5 min and cooled to room temperature. Cooled mixture was diluted by adding 10 mL distilled water, and absorbance was measured at 540 nm using a UV–visible spectrophotometer (Shimadzu UV-1700, Japan). […] IC50 values were calculated by the logarithmic regression analysis.

[3] = test system: α-glucosidase enzyme; parameters: method as in doi:10.1007/978-3-642-73461-8_2; settings: cited from earlier work

SMILES	Inhibitory effects α-glucosidase (acarbose equivalents) [1] [μg acarbose/μg]	IC50 α-Glucosidase [1] [µg/mL]	Contribution to the overall enzyme inhibitory effect of the extract, α-amylase [2] [%]	Inhibitory effects α-amylase (acarbose equivalents) [2] [μg acarbose/μg]	IC50 [2] [mM]	final inhibitory effect against α-glucosidase ([1]; at 2 mg/mL) [%]	inhibition at 2000 µg/mL ([2]; read-out: inhibition of α-amylase) [%]	affinity exceeding that of the normal substrate, factor [3]
C[C@H]1O[C@H](O[C@H]2[C@H](O)[C@@H](O)[C@@H](O[C@H]3[C@H](O)[C@@H](O)C(O)O[C@@H]3CO)O[C@@H]2CO)[C@H](O)[C@@H](O)[C@@H]1N[C@H]1C=C(CO)[C@@H](O)[C@H](O)[C@H]1O (stereo partly drawn) [Acarbose, acarbose, reference compound]		996.02 ± 21.34 (≈ 1540 µM)				68.66	69.9	10^4–10^5
O=C(O)[C@H]1O[C@@H](Oc2cc3oc(-c4ccccc4)cc(=O)c3c(O)c2O)[C@H](O)[C@@H](O)[C@@H]1O [Baicalin, baicalin]	1.68 ± 0.02	591.58 ± 12.21 (≈ 1330 µM)	4.95 ± 0.13	1.03 ± 0.01	1.48			
O=C(O)[C@H]1O[C@@H](Oc2cc3oc(-c4ccc(O)cc4)cc(=O)c3c(O)c2O)[C@H](O)[C@@H](O)[C@@H]1O [Scutellarin, scutellarin]	3.18 ± 0.06	313.25 ± 7.28 (≈ 677 µM)	14.80 ± 0.66	1.84 ± 0.02	0.799			
O=c1cc(-c2ccccc2)oc2cc(O)c(O)c(O)c12 [Baicalein, baicalein]	3.58 ± 0.07	277.94 ± 6.21 (≈ 1030 µM)	23.37 ± 0.98	2.07 ± 0.02	1.24			

Now from value to compound, other results behind:

Inhibitory effects α-glucosidase (acarbose equivalents) [1] [μg acarbose/μg]	SMILES	IC50 α-Glucosidase [1] [µg/mL]	Contribution to the overall enzyme inhibitory effect of the extract, α-amylase [2] [%]	Inhibitory effects α-amylase (acarbose equivalents) [2] [μg acarbose/μg]	IC50 [2] [mM]	final inhibitory effect against α-glucosidase ([1]; at 2 mg/mL) [%]	inhibition at 2000 µg/mL ([2]; read-out: inhibition of α-amylase) [%]	affinity exceeding that of the normal substrate, factor [3]
1.63 ± 0.01	O=C(O)[C@H]1O[C@@H](Oc2cc(O)c3c(=O)cc(-c4ccccc4)oc3c2)[C@H](O)[C@@H](O)[C@@H]1O [Chrysin-7-O-G, chrysin-7-O-glucuronide]	612.13 ± 15.34 (≈ 1420 µM)	2.63 ± 0.07	0.69 ± 0.01	2.28			
4.31 ± 0.08	O=c1cc(-c2ccc(O)cc2)oc2cc(O)cc(O)c12 [Apigenin]	231.13 ± 5.35 (≈ 855 µM)						
2.36 ± 0.03	O=c1cc(-c2ccccc2)oc2cc(O)cc(O)c12 [Chrysin, chrysin]	422.67 ± 9.37 (≈ 1660 µM)	6.91 ± 0.21	1.51 ± 0.02	1.77			
1.83 ± 0.02	O=C(O)[C@H]1O[C@@H](Oc2cc(O)c3c(=O)cc(-c4ccc(O)cc4)oc3c2)[C@H](O)[C@@H](O)[C@@H]1O [Apigenin-7-O-G, apigenin-7-O-glucuronide]	543.28 ± 11.41 (≈ 1220 µM)	2.74 ± 0.09	1.04 ± 0.01	1.47			

— PMC6042199, “Inhibitory effects against α-glucosidase and α-amylase of the flavonoids-rich extract from Scutellaria baicalensis shoots and interpretation of structure–activity relationship of its eight flavonoids by a refined assign-score method” (Chemistry Central Journal, 2018)
